Results as given in publication PMC11184945, “Inhibition mechanism investigation of quercetagetin as a potential tyrosinase inhibitor” (Frontiers in Chemistry, 2024).

Molecular target: T1, tyrosinase (mushroom) (Agaricus bisporus, UniProt C7FF04)
T1 construct: gene PPO3
Assay: L-dopa oxidation assay at […] nm with Lineweaver-Burk kinetics (Ki […], Kis […]); static fluorescence quenching, CD
Format: biochemical

T1 sequence (C7FF04 2-392): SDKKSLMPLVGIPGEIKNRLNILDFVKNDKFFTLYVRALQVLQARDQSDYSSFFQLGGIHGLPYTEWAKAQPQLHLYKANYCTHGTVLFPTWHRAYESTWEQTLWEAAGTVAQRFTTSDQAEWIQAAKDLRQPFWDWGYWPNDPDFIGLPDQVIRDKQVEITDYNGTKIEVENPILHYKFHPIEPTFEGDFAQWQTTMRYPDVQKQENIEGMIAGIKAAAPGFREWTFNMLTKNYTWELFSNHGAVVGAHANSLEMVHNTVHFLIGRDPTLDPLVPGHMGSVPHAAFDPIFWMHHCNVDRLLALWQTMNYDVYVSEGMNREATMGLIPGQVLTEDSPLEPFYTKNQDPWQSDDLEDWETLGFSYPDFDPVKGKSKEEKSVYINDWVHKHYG

**Q.** For O=c1c(O)c(-c2ccc(O)c(O)c2)oc2cc(O)c(O)c(O)c12 [quercetagetin, 3,3′,4′,5,6,7-hexahydroxyflavone], which IC50 is on record?
**A.** Its IC50 is 190 ± 10 µM.
